This note sets out measurements from patent US9061980B2, “Organic compounds” (NABRIVA THERAPEUTICS, AG, priority 2007, dated 2015).

Type in all cases: cell-based
For assay [1], the system named is Moraxella catarrhalis ATCC43618 B407. Description: MIC determination according to CLSI. Particulars: Moraxella catarrhalis ATCC43618, strain B407. The text has this: (§1) For example, the compounds of the present invention show antimicrobial, e.g. antibacterial, activity against gram positive bacteria, such as coagulase-positive and coagulase-negative Staphylococci, e.g. Staphylococcus aureus, Styphylococcus epidermis, Staphylococcus haemolyticus, Streptococci, e.g. Streptococcus pyogenes, Streptococcus pneumoniae, Streptococcus agalacticae, Enterococci, e.g. Enterococcus faecium and Moraxellaceae, e.g. Moraxella catarrhalis, Pasteurellaceae, e.g. Haemophilus influenzae, as well as against Mycoplasmactaceae, Chlamydiaceae, e.g. Chlamydia trachomatis, Chlamydia pneumoniae and obligatory anaerobes, e.g. Bacteroides fragilis, Clostridium difficile; in vitro in the Agar Dilution Test or Microdilution Test according to the Clinical and Laboratory Standards Institute (CLSI, former National Committee for Clinical Laboratory Standards (NCCLS) 2006, Document M7-A7 Vol. 26, No. 2: “Methods for dilution Antimicrobial Susceptibility Tests for Bacteria that Grow Aerobically—Seventh Edition, Approved Standard”; and in the in vitro determination of the antibacterial activity against anaerobic bacteria according to National Committee for Clinical Laboratory Standards (NCCLS) VOL. 24, No. 2, M11-A5, Methods for Antimicrobal Susceptibility Testing of Anaerobic Bacteria; Approved Standard; Sixth Edition (2004) and in vivo in the septicaemic mouse model against Staphylococcus aureus.
(§2) The antibacterial activity expressed as minimal inhibitory concentration (MIC) was determined according to the approved standard reference recommendations of CLSI (former NCCLS).

The test system of assay [2] is Enterococcus faecalis ATCC51299 B5. Description: MIC determination according to CLSI. Particulars: Enterococcus faecalis ATCC51299, strain B5.
Source text: as §1, §2

The test system of assay [3] is Enterococcus faecalis ATCC29212 B4. Kind of assay: MIC determination according to CLSI. Particulars: Enterococcus faecalis ATCC29212, strain B4.
Source text: as §1, §2

Assay [4] relates to Staphylococcus aureus (MSSA) ATCC29213 B7. Kind of assay: MIC determination according to CLSI. Particulars: Staphylococcus aureus (MSSA) ATCC29213, strain B7.
Source text: as §1, §2

The subject of assay [5] is Escherichia coli ATCC25922 B1. Kind of assay: MIC determination according to CLSI. Particulars: Escherichia coli ATCC25922, strain B1.
Source text: as §1, §2

Assay [6] has as its system Streptococcus pneumoniae ATCC49619 B11. Description: MIC determination according to CLSI. Particulars: Streptococcus pneumoniae ATCC49619, strain B11.
Source text: as §1, §2

Assay [7] concerns Staphylococcus aureus (MSSA) ATCC10390 B6. Description: MIC determination according to CLSI. Particulars: Staphylococcus aureus (MSSA) ATCC10390, strain B6.
Source text: as §1, §2

The subject of assay [8] is Staphylococcus aureus, Enterococcus faecalis, Streptococcus pneumoniae, Moraxella catarrhalis and Escherichia coli. Description: Antibacterial activity (MIC) against panel of clinical relevant bacterial pathogens. Particulars: for activity against the clinical relevant bacterial pathogens: in vitro, statement in words. The method, then: as §2

The structures appear in SMILES notation. Converted amounts (≈) assume the structure as drawn. Where two headings read alike, the source gives them in different places.

Consider `C=C[C@]1(C)C[C@@H](OC(=O)CSc2cccc(F)c2)[C@]2(C)C(C)CCC3(CCC(=O)C32)[C@@H](C)[C@@H]1O` (stereo partly shown) [Example 1, 14-O-[(3-Fluoro-phenylsulfanyl)-acetyl]-mutilin], for which the MIC was at most 0.0125 µg/mL in assay [1] (read-out: MIC); above 25.6 µg/mL in assay [2] (read-out: MIC); 3.2 µg/mL (≈ 6.55 µM) in assay [3] (read-out: MIC); at most 0.0125 µg/mL in assay [4] (read-out: MIC); above 25.6 µg/mL in assay [5] (read-out: MIC); 0.04 µg/mL (≈ 0.0819 µM) in assay [6] (read-out: MIC). Moreover, the MIC in assay [7] (read-out: MIC) was at most 0.0125 µg/mL. For the same molecule, the “factor by which MICs are lower than the MICs of the comparator compounds” value in assay [8] (against at least one of the strains shown in Table 1, comparators examples 3, 6, 9, 12, 14 and 17) is on record as at least 2. For the same molecule, in assay [8], the “activity against the clinical relevant bacterial pathogens” value (“activity” below) was “very good activity”.

With `C=C[C@]1(C)C[C@@H](OC(=O)CSc2ccccc2F)[C@]2(C)C(C)CCC3(CCC(=O)C32)[C@@H](C)[C@@H]1O` (stereo partly shown) [Example 3, 14-O-[(2-Fluoro-phenylsulfanyl)-acetyl]-mutilin], the MIC in assay [1] (read-out: MIC) is 0.025 µg/mL (≈ 0.0512 µM); in assay [2] (read-out: MIC), above 25.6 µg/mL; in assay [3] (read-out: MIC), above 25.6 µg/mL; in assay [4] (read-out: MIC), 0.05 µg/mL (≈ 0.102 µM); in assay [5] (read-out: MIC), above 25.6 µg/mL; in assay [6] (read-out: MIC) it was 0.16 µg/mL (≈ 0.327 µM). Moreover, the MIC in assay [7] (read-out: MIC) was determined as 0.05 µg/mL (≈ 0.102 µM).

As for `C=C[C@]1(C)C[C@@H](OC(=O)CSc2ccc(F)cc2F)[C@]2(C)C(C)CCC3(CCC(=O)C32)[C@@H](C)[C@@H]1O` (stereo partly shown) [Example 6, 14-O-[(2,4-Difluoro-phenylsulfanyl)-acetyl]-mutilin], the minimal inhibitory concentration (MIC) in assay [1] (read-out: MIC) was 0.05 µg/mL (≈ 0.0987 µM); in assay [2] (read-out: MIC), above 25.6 µg/mL; in assay [3] (read-out: MIC), above 25.6 µg/mL; in assay [4] (read-out: MIC), 0.1 µg/mL (≈ 0.197 µM); in assay [5] (read-out: MIC), above 25.6 µg/mL; in assay [6] (read-out: MIC), 0.32 µg/mL (≈ 0.632 µM). In addition, the MIC in assay [7] (read-out: MIC) was determined as 0.1 µg/mL (≈ 0.197 µM).

In the case of `C=C[C@]1(C)C[C@@H](OC(=O)CSc2cccc(O)c2)[C@]2(C)C(C)CCC3(CCC(=O)C32)[C@@H](C)[C@@H]1O` (stereo partly shown) [Example 7, 14-O-[(3-Hydroxy-phenylsulfanyl)-acetyl]-mutilin], the MIC in assay [1] (read-out: MIC) is at most 0.0125 µg/mL; in assay [2] (read-out: MIC), above 25.6 µg/mL; in assay [3] (read-out: MIC), above 25.6 µg/mL; in assay [4] (read-out: MIC) it was at most 0.0125 µg/mL; in assay [5] (read-out: MIC), above 25.6 µg/mL; in assay [6] (read-out: MIC), 0.02 µg/mL (≈ 0.0411 µM). For the same molecule, the MIC in assay [7] (read-out: MIC) was at most 0.0125 µg/mL. In assay [8], the “activity” value is “very good activity”.

As for `C=C[C@]1(C)C[C@@H](OC(=O)CSc2ccccc2O)[C@]2(C)C(C)CCC3(CCC(=O)C32)[C@@H](C)[C@@H]1O` (stereo partly shown) [Example 9, 14-O-[(2-Hydroxy-phenylsulfanyl)-acetyl]-mutilin], the MIC in assay [1] (read-out: MIC) was at most 0.0125 µg/mL; in assay [2] (read-out: MIC), above 25.6 µg/mL; in assay [3] (read-out: MIC), above 25.6 µg/mL; in assay [4] (read-out: MIC), at most 0.0125 µg/mL; in assay [5] (read-out: MIC), above 25.6 µg/mL; in assay [6] (read-out: MIC) it was 0.16 µg/mL (≈ 0.329 µM). The MIC in assay [7] (read-out: MIC) is at most 0.0125 µg/mL.

Consider `C=C[C@]1(C)C[C@@H](OC(=O)CSc2cccc(OC)c2)[C@]2(C)C(C)CCC3(CCC(=O)C32)[C@@H](C)[C@@H]1O` (stereo partly shown) [Example 10, 14-O-[(3-Methoxy-phenylsulfanyl)-acetyl]-mutilin], for which the MIC in assay [1] (read-out: MIC) is at most 0.0125 µg/mL; in assay [2] (read-out: MIC) it was above 25.6 µg/mL; in assay [3] (read-out: MIC), above 25.6 µg/mL; in assay [4] (read-out: MIC) it was 0.025 µg/mL (≈ 0.0499 µM); in assay [5] (read-out: MIC) it was above 25.6 µg/mL; in assay [6] (read-out: MIC), 0.04 µg/mL (≈ 0.0799 µM). In addition, in assay [7] (read-out: MIC), the MIC amounted to 0.025 µg/mL (≈ 0.0499 µM). The “activity” value in assay [8] was “very good activity”.

`C=C[C@]1(C)C[C@@H](OC(=O)CSc2ccccc2OC)[C@]2(C)C(C)CCC3(CCC(=O)C32)[C@@H](C)[C@@H]1O` (stereo partly shown) [Example 12, 14-O-[(2-Methoxy-phenylsulfanyl)-acetyl]mutilin]: the MIC in assay [1] (read-out: MIC) was 0.1 µg/mL (≈ 0.2 µM); in assay [2] (read-out: MIC), above 25.6 µg/mL; in assay [3] (read-out: MIC), above 25.6 µg/mL; in assay [4] (read-out: MIC) it was 0.2 µg/mL (≈ 0.399 µM); in assay [5] (read-out: MIC), above 25.6 µg/mL; in assay [6] (read-out: MIC) it was 0.16 µg/mL (≈ 0.32 µM). Further, the MIC in assay [7] (read-out: MIC) amounted to 0.2 µg/mL (≈ 0.399 µM).

As for `C=C[C@]1(C)C[C@@H](OC(=O)CSc2cccc(C)c2)[C@]2(C)C(C)CCC3(CCC(=O)C32)[C@@H](C)[C@@H]1O` (stereo partly shown) [Example 14, 14-O-[(3-Methyl-phenylsulfanyl)-acetyl]-mutilin], the MIC was 0.0125 µg/mL (≈ 0.0258 µM) in assay [1] (read-out: MIC); above 6.4 µg/mL in assay [2] (read-out: MIC); above 6.4 µg/mL in assay [3] (read-out: MIC); 0.05 µg/mL (≈ 0.103 µM) in assay [4] (read-out: MIC); above 6.4 µg/mL in assay [5] (read-out: MIC); 0.16 µg/mL (≈ 0.33 µM) in assay [6] (read-out: MIC). Also, the MIC in assay [7] (read-out: MIC) was found to be 0.025 µg/mL (≈ 0.0516 µM).

On to `C=C[C@]1(C)C[C@@H](OC(=O)COc2cccc(O)c2)[C@]2(C)C(C)CCC3(CCC(=O)C32)[C@@H](C)[C@@H]1O` (stereo partly shown) [Example 15, 14-O-[(3-Hydroxy-phenoxy)-acetyl]-mutilin], for which the MIC in assay [1] (read-out: MIC) is at most 0.0125 µg/mL; in assay [2] (read-out: MIC), 25.6 µg/mL (≈ 54.4 µM); in assay [3] (read-out: MIC) it was 12.8 µg/mL (≈ 27.2 µM); in assay [4] (read-out: MIC), 0.025 µg/mL (≈ 0.0531 µM); in assay [5] (read-out: MIC), above 25.6 µg/mL; in assay [6] (read-out: MIC), 0.04 µg/mL (≈ 0.085 µM). Also, the MIC in assay [7] (read-out: MIC) is 0.025 µg/mL (≈ 0.0531 µM). Also, in assay [8], the “activity” value is reported as “very good activity”.

In the case of `C=C[C@]1(C)C[C@@H](OC(=O)COc2ccccc2O)[C@]2(C)C(C)CCC3(CCC(=O)C32)[C@@H](C)[C@@H]1O` (stereo partly shown) [Example 17, 14-O-[(2-Hydroxy-phenoxy)-acetyl]-mutilin], the MIC in assay [1] (read-out: MIC) is 0.0125 µg/mL (≈ 0.0266 µM); in assay [2] (read-out: MIC), above 6.4 µg/mL; in assay [3] (read-out: MIC) it was above 6.4 µg/mL; in assay [4] (read-out: MIC), 0.05 µg/mL (≈ 0.106 µM); in assay [5] (read-out: MIC), above 6.4 µg/mL; in assay [6] (read-out: MIC), 0.16 µg/mL (≈ 0.34 µM). For the same molecule, the minimal inhibitory concentration (MIC) in assay [7] (read-out: MIC) turned out to be 0.05 µg/mL (≈ 0.106 µM).

In the case of `C=C[C@]1(C)C[C@@H](OC(=O)COc2cccc(C)c2)[C@]2(C)[C@H](C)CC[C@]3(CCC(=O)[C@H]32)[C@@H](C)[C@@H]1O` [Example 19, 14-O-[(3-Methyl-phenoxy)-acetyl]-mutilin], the MIC was 0.0125 µg/mL (≈ 0.0267 µM) in assay [1]; above 6.4 µg/mL in assay [2]; above 6.4 µg/mL in assay [3]; 0.05 µg/mL (≈ 0.107 µM) in assay [4]; above 6.4 µg/mL in assay [5]; 0.64 µg/mL (≈ 1.37 µM) in assay [6]. In assay [7], this molecule registered a minimum inhibitory concentration (MIC) of 0.05 µg/mL (≈ 0.107 µM).

For orientation: MIC means the smallest concentration in the dilution series that meets the test's criterion for growth inhibition.
